Measured values from ChEMBL document CHEMBL4715697, “Synthesis and biological activity of benzamide DNA minor groove binders” (2016).

Legend:
Type in all cases: functional
Conditions in all cases: read-out: Activity
UO-31 = experiment: Growth inhibition of human UO-31 cells assessed as cell growth at 10 uM incubated for 48 hrs by sulforhodamine B assay relative to control
EKVX = experiment: Growth inhibition of human EKVX cells assessed as cell growth at 10 uM incubated for 48 hrs by sulforhodamine B assay relative to control
RPMI-8226 = experiment: Growth inhibition of human RPMI-8226 cells assessed as cell growth at 10 uM incubated for 48 hrs by sulforhodamine B assay relative to control
K562 = experiment: Growth inhibition of human K562 cells assessed as cell growth at 10 uM incubated for 48 hrs by sulforhodamine B assay relative to control
KM12 = experiment: Growth inhibition of human KM12 cells assessed as cell growth at 10 uM incubated for 48 hrs by sulforhodamine B assay relative to control
UACC-62 = experiment: Growth inhibition of human UACC-62 cells assessed as cell growth at 10 uM incubated for 48 hrs by sulforhodamine B assay relative to control
SF-268 = experiment: Growth inhibition of human SF-268 cells assessed as cell growth at 10 uM incubated for 48 hrs by sulforhodamine B assay relative to control
NCI-H23 = experiment: Growth inhibition of human NCI-H23 cells assessed as cell growth at 10 uM incubated for 48 hrs by sulforhodamine B assay relative to control
RXF 393 = experiment: Growth inhibition of human RXF 393 cells assessed as cell growth at 10 uM incubated for 48 hrs by sulforhodamine B assay relative to control
HCT-116 = experiment: Growth inhibition of human HCT-116 cells assessed as cell growth at 10 uM incubated for 48 hrs by sulforhodamine B assay relative to control
PC-3 = experiment: Growth inhibition of human PC-3 cells assessed as cell growth at 10 uM incubated for 48 hrs by sulforhodamine B assay relative to control
SW-620 = experiment: Growth inhibition of human SW-620 cells assessed as cell growth at 10 uM incubated for 48 hrs by sulforhodamine B assay relative to control
MOLT-4 = experiment: Growth inhibition of human MOLT-4 cells assessed as cell growth at 10 uM incubated for 48 hrs by sulforhodamine B assay relative to control
HOP-62 = experiment: Growth inhibition of human HOP-62 cells assessed as cell growth at 10 uM incubated for 48 hrs by sulforhodamine B assay relative to control
MDA-MB-231 = experiment: Growth inhibition of human MDA-MB-231 cells assessed as cell growth at 10 uM incubated for 48 hrs by sulforhodamine B assay relative to control
MDA-MB-435 = experiment: Growth inhibition of human MDA-MB-435 cells assessed as cell growth at 10 uM incubated for 48 hrs by sulforhodamine B assay relative to control
UACC-257 = experiment: Growth inhibition of human UACC-257 cells assessed as cell growth at 10 uM incubated for 48 hrs by sulforhodamine B assay relative to control
LOX IMVI = experiment: Growth inhibition of human LOX IMVI cells assessed as cell growth at 10 uM incubated for 48 hrs by sulforhodamine B assay relative to control
CCRF-CEM = experiment: Growth inhibition of human CCRF-CEM cells assessed as cell growth at 10 uM incubated for 48 hrs by sulforhodamine B assay relative to control
SR = experiment: Growth inhibition of human SR cells assessed as cell growth at 10 uM incubated for 48 hrs by sulforhodamine B assay relative to control
OVCAR-8 = experiment: Growth inhibition of human OVCAR-8 cells assessed as cell growth at 10 uM incubated for 48 hrs by sulforhodamine B assay relative to control
SK-MEL-5 = experiment: Growth inhibition of human SK-MEL-5 cells assessed as cell growth at 10 uM incubated for 48 hrs by sulforhodamine B assay relative to control
SK-MEL-2 = experiment: Growth inhibition of human SK-MEL-2 cells assessed as cell growth at 10 uM incubated for 48 hrs by sulforhodamine B assay relative to control
Malme-3M = experiment: Growth inhibition of human Malme-3M cells assessed as cell growth at 10 uM incubated for 48 hrs by sulforhodamine B assay relative to control
SK-OV-3 = experiment: Growth inhibition of human SK-OV-3 cells assessed as cell growth at 10 uM incubated for 48 hrs by sulforhodamine B assay relative to control
DU-145 = experiment: Growth inhibition of human DU-145 cells assessed as cell growth at 10 uM incubated for 48 hrs by sulforhodamine B assay relative to control
U-251 = experiment: Growth inhibition of human U-251 cells assessed as cell growth at 10 uM incubated for 48 hrs by sulforhodamine B assay relative to control
786-0 = experiment: Growth inhibition of human 786-0 cells assessed as cell growth at 10 uM incubated for 48 hrs by sulforhodamine B assay relative to control
M14 = experiment: Growth inhibition of human M14 cells assessed as cell growth at 10 uM incubated for 48 hrs by sulforhodamine B assay relative to control
ACHN = experiment: Growth inhibition of human ACHN cells assessed as cell growth at 10 uM incubated for 48 hrs by sulforhodamine B assay relative to control
HT-29 = experiment: Growth inhibition of human HT-29 cells assessed as cell growth at 10 uM incubated for 48 hrs by sulforhodamine B assay relative to control
MDA-MB-468 = experiment: Growth inhibition of human MDA-MB-468 cells assessed as cell growth at 10 uM incubated for 48 hrs by sulforhodamine B assay relative to control
HCT-15 = experiment: Growth inhibition of human HCT-15 cells assessed as cell growth at 10 uM incubated for 48 hrs by sulforhodamine B assay relative to control
NCI-H226 = experiment: Growth inhibition of human NCI-H226 cells assessed as cell growth at 10 uM incubated for 48 hrs by sulforhodamine B assay relative to control
SNB-19 = experiment: Growth inhibition of human SNB-19 cells assessed as cell growth at 10 uM incubated for 48 hrs by sulforhodamine B assay relative to control
SK-MEL-28 = experiment: Growth inhibition of human SK-MEL-28 cells assessed as cell growth at 10 uM incubated for 48 hrs by sulforhodamine B assay relative to control
COLO 205 = experiment: Growth inhibition of human COLO 205 cells assessed as cell growth at 10 uM incubated for 48 hrs by sulforhodamine B assay relative to control
OVCAR-3 = experiment: Growth inhibition of human OVCAR-3 cells assessed as cell growth at 10 uM incubated for 48 hrs by sulforhodamine B assay relative to control
OVCAR-5 = experiment: Growth inhibition of human OVCAR-5 cells assessed as cell growth at 10 uM incubated for 48 hrs by sulforhodamine B assay relative to control
IGROV-1 = experiment: Growth inhibition of human IGROV-1 cells assessed as cell growth at 10 uM incubated for 48 hrs by sulforhodamine B assay relative to control

Row | SMILES | growth at 10 µM (UO-31) [%] | growth at 10 µM (EKVX) [%] | growth at 10 µM (RPMI-8226) [%] | growth at 10 µM (K562) [%] | growth at 10 µM (KM12) [%] | growth at 10 µM (UACC-62) [%] | growth at 10 µM (SF-268) [%] | growth at 10 µM (NCI-H23) [%] | growth at 10 µM (RXF 393) [%] | growth at 10 µM (HCT-116) [%] | growth at 10 µM (PC-3) [%] | growth at 10 µM (SW-620) [%] | growth at 10 µM (MOLT-4) [%] | growth at 10 µM (HOP-62) [%] | growth at 10 µM (MDA-MB-231) [%] | growth at 10 µM (MDA-MB-435) [%] | growth at 10 µM (UACC-257) [%] | growth at 10 µM (LOX IMVI) [%] | growth at 10 µM (CCRF-CEM) [%] | growth at 10 µM (SR) [%] | other results
1 | CC(=O)Nc1cc(CO)cc(NC(=O)c2ccccc2)c1 | 95.5 | 103 | 106 | 110 | 116 | 104 | 103 | 50.8 | 119 | 105 | 101 | 106 | 98.7 | 104 | 109 | 105 | 104 | 99 | 110 | 107 | growth at 10 µM (OVCAR-8): 102%; growth at 10 µM (SK-MEL-5): 105%; growth at 10 µM (SK-MEL-2): 111%; growth at 10 µM (Malme-3M): 109%; growth at 10 µM (SK-OV-3): 99.4%; growth at 10 µM (DU-145): 105%; growth at 10 µM (U-251): 99.4%; growth at 10 µM (786-0): 104%; growth at 10 µM (M14): 109%; growth at 10 µM (ACHN): 109%; growth at 10 µM (HT-29): 109%; growth at 10 µM (MDA-MB-468): 106%; growth at 10 µM (HCT-15): 107%; growth at 10 µM (NCI-H226): 115%; growth at 10 µM (SNB-19): 106%; growth at 10 µM (SK-MEL-28): 109%; growth at 10 µM (COLO 205): 115%; growth at 10 µM (OVCAR-3): 118%; growth at 10 µM (OVCAR-5): 103%; growth at 10 µM (IGROV-1): 110%
2 | CC(=O)Nc1cc(CO)cc(NC(=O)c2ccc(C(=O)Nc3cc(CO)cc(NC(C)=O)c3)cc2)c1 | 97.1 | 115 | 94.5 | 106 | 136 | 103 | 115 | 103 | 103 | 98.6 | 97.9 | 114 | 101 | 102 | 104 | 102 | 106 | 96.8 | 87.4 | 106 | growth at 10 µM (OVCAR-8): 107%; growth at 10 µM (SK-MEL-5): 104%; growth at 10 µM (SK-MEL-2): 93.3%; growth at 10 µM (Malme-3M): 113%; growth at 10 µM (SK-OV-3): 101%; growth at 10 µM (DU-145): 127%; growth at 10 µM (U-251): 112%; growth at 10 µM (786-0): 103%; growth at 10 µM (M14): 104%; growth at 10 µM (ACHN): 109%; growth at 10 µM (HT-29): 107%; growth at 10 µM (MDA-MB-468): 101%; growth at 10 µM (HCT-15): 104%; growth at 10 µM (NCI-H226): 94.9%; growth at 10 µM (SNB-19): 102%; growth at 10 µM (SK-MEL-28): 117%; growth at 10 µM (COLO 205): 109%; growth at 10 µM (OVCAR-3): 139%; growth at 10 µM (OVCAR-5): 106%; growth at 10 µM (IGROV-1): 103%
3 | CC(=O)Nc1cc(CCl)cc(NC(=O)c2ccc(C(=O)Nc3cccc(NC(=O)CCCN(C)C)c3)cc2)c1 | 98 | 86 | 116 | 113 | 104 | 101 | 101 | 93 | 96 | 106 | 104 | 107 | 102 | 106 | 106 | 100 | 100 | 92 | 114 | 125 | growth at 10 µM (OVCAR-8): 98%; growth at 10 µM (SK-MEL-5): 93%; growth at 10 µM (SK-MEL-2): 116%; growth at 10 µM (Malme-3M): 100%; growth at 10 µM (SK-OV-3): 114%; growth at 10 µM (DU-145): 106%; growth at 10 µM (U-251): 100%; growth at 10 µM (786-0): 107%; growth at 10 µM (M14): 104%; growth at 10 µM (ACHN): 99%; growth at 10 µM (HT-29): 104%; growth at 10 µM (MDA-MB-468): 91%; growth at 10 µM (HCT-15): 93%; growth at 10 µM (NCI-H226): 93%; growth at 10 µM (SNB-19): 106%; growth at 10 µM (SK-MEL-28): 96%; growth at 10 µM (COLO 205): 105%; growth at 10 µM (OVCAR-3): 113%; growth at 10 µM (OVCAR-5): 92%; growth at 10 µM (IGROV-1): 116%
